Columns and labels:
TNF-α = test: Inhibition of TNF-α induced by LPS in mice (DAYNES technique), serum ELISA; type: in vivo
Method: This anti-inflammatory activity was complemented by a study of the immunosuppressive activity of PIV against Tumor Necrosis Factor-α.
Inhibition of the activity of TNF-α by the Peptide PIV
The DAYNES techniques described in Example 8 are used.
40 μg of PIV in 0.2 ml of physiological saline--that is to say 200 μg/ml
25 μg of PIV in 0.2 ml of physiological saline--that is to say 125 μg/ml
10 μg of PIV in 0.2 ml of physiological saline--that is to say 50 μg/ml
It was carried out on mice separated into 5 batches of 5 animals
The animals in the control batches receive an injection of 0.2 ml of physiological saline intravenously. The animals in the PIV batches receive an injection of the product at various dosages intravenously. (Caudal vein)
Immediately after the treatment of the mice, a sublethal dose of LPS (1.2 mg in 0.2 ml of physiological saline) is intraperitoneally injected into each animal in the batches and positive control.
Ninety minutes later, all the mice are punctured through the retroorbital sinuses on dry tubes. As soon as the blood coagulates, the clot is detached. The blood is centrifuged for 10 minutes at 10° C. at 1800 g.
The sera once collected are frozen at -25° C.
The TNF-α contained in these sera is assayed 24 hours after the sampling with the murine TNF-α ELISA assay Kit (ref. 1509-00 GENZYME)
Rapid description of the Kit: the method used for this assay is of the sandwich type.
A first anti-murine TNF-A monoclonal antibody is used.
The samples are then deposited and then a second anti-TNF-α goat antibody is caused to react.
The colored reaction uses o-phenylenediamine (OPD).
The reading is made at 492 nm with a plate reader (TITERTEK MKII MCC 340)

[1] = test system: PGE2 production by MRC5 fibroblasts stimulated by IL1; test: PGE2 production by fibroblasts stimulated by IL1 (RIA); type: cell-based, human; details: for % inhibition (PGE2) / PGE2: IL1:5 ng
Method: 2-1 Culture of embryonic pulmonary fibroplasts [sic] of human origin:
We chose to use the strain ATCC MRC5 maintained in the laboratory continuously and already tested by Cannon et al. (J. Immunol., 1986).
After subculturing, the fibroplasts [sic] are cultured in microwells (24-well plate of 2 cm2, Falcon). The innoculum is 30 000 cells per well; the nutrient medium used is composed of RPMI 1640 (90%) and of complement-free fetal calf serum (FCS, 10%). The medium is changed every two days until the cells become confluent.
The monocell layers thus obtained are washed and preincubated for 24 hours in fresh medium containing only 1% of FCS. […] After incubating for 20 minutes in the presence of these compounds, human recombinant IL1 (Tebu, France) at a concentration of 5, 2.5 or 0.5 ng/ml of medium is placed in contact with cells for 18 hours.
At the end of this incubation, the supernatants are collected and frozen at -80° C. until the analysis is carried out. The monocell layers are fixed with methanol.
The RIA assay is carried out according to the method described by Dray et al. (Europ. J. Invest. 1975). 3 series of experiments, in duplicate, were carried out for each concentration of product studied and for the controls. The results are expressed in pg/μg of DNA. The inhibitory effect is expressed in percentage relative to the controls.
In order to avoid any possible error due to the counting by optical microscopy, the DNA was assayed by a fluorimetric method according to the procedure described by Brunk et al. (Analytical Biochem., 1979).

[2] = Protection of treated animals given a lethal dose of LPS; type: in vivo, mice

[(DL) Lip] His - D.homoPhe - Arg - Trp - NH2 [PIV]
mean decreases in TNF-α (TNF-α; 50 μg/ml, five studies): 37% | mean decreases in TNF-α (TNF-α; 125 μg/ml, five studies): 40% | mean decreases in TNF-α (TNF-α; 200 μg/ml, five studies): 46% | mean decreases in TNF-α (TNF-α; all dosages, all the five studies): ~40% | immunosuppressive activity against Tumor Necrosis Factor-α (TNF-α; complementary study reported in Example 8): -40% | % inhibition (PGE2) ([1]; 10^-4 M): 60% | PGE2 ([1]; 10^-4 M): 2964 ± 184 pg/mg of DNA | % inhibition (PGE2) ([1]; 10^-5 M): 38% | PGE2 ([1]; 10^-5 M): 4580 ± 230 pg/mg of DNA | % inhibition (PGE2) ([1]; 10^-6 M): 34% | PGE2 ([1]; 10^-6 M): 4900 ± 340 pg/mg of DNA | % inhibition (PGE2) ([1]; 10^-7 M): 17% | PGE2 ([1]; 10^-7 M): 6150 ± 365 pg/mg of DNA | % inhibition (PGE2) ([1]; 10^-8 M): 17% | PGE2 ([1]; 10^-8 M): 6142 ± 255 pg/mg of DNA | % inhibition (PGE2) ([1]; 10^-9 M): 32% | PGE2 ([1]; 10^-9 M): 5047 ± 279 pg/mg of DNA | inhibitory action on IL1-stimulated PGE2 production (in words) ([1]; overall): possess an inhibitory power | Protection of treated animals (mortality) [2]: highly significant retarded mortality rate
